The values below come from ChEMBL document CHEMBL1152063, “4-Substituted proline derivatives that inhibit angiotensin converting enzyme and neutral endopeptidase 24.11” (Bioorg Med Chem Lett, 1994).

Some results are limits rather than exact numbers.

For one assay, the target named is T1, Neprilysin (Rattus norvegicus, UniProt P07861).
T1 sequence (P07861 whole entry): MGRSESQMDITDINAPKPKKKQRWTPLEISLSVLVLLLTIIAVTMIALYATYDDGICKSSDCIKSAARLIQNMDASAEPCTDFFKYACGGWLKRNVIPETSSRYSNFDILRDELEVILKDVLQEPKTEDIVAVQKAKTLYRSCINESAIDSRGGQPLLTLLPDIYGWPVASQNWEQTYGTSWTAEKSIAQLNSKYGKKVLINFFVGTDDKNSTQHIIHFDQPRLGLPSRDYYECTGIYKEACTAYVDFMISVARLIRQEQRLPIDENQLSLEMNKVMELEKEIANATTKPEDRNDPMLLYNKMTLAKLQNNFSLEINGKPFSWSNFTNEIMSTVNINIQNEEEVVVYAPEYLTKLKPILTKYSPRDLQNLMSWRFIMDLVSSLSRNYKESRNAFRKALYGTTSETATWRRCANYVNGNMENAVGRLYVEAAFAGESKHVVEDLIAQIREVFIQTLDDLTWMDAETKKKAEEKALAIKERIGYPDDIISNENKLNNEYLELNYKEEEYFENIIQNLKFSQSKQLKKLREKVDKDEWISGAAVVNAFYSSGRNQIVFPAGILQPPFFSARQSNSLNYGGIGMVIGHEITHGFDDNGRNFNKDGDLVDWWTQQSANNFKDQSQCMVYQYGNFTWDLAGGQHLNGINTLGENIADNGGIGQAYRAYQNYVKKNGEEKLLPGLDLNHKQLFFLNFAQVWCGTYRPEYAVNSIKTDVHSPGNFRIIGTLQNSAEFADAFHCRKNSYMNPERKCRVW
Kind of assay: In vitro inhibition against neutral endopeptidase 24.11 (NEP) in rat kidney cortex membrane. In kind it is cell membranes.

Assay [1] concerns the target Angiotensin-converting enzyme (Homo sapiens, UniProt P12821). In words: In vitro inhibition against angiotensin converting enzyme (ACE).

Angiotensin-converting enzyme, sequence (P12821 whole entry): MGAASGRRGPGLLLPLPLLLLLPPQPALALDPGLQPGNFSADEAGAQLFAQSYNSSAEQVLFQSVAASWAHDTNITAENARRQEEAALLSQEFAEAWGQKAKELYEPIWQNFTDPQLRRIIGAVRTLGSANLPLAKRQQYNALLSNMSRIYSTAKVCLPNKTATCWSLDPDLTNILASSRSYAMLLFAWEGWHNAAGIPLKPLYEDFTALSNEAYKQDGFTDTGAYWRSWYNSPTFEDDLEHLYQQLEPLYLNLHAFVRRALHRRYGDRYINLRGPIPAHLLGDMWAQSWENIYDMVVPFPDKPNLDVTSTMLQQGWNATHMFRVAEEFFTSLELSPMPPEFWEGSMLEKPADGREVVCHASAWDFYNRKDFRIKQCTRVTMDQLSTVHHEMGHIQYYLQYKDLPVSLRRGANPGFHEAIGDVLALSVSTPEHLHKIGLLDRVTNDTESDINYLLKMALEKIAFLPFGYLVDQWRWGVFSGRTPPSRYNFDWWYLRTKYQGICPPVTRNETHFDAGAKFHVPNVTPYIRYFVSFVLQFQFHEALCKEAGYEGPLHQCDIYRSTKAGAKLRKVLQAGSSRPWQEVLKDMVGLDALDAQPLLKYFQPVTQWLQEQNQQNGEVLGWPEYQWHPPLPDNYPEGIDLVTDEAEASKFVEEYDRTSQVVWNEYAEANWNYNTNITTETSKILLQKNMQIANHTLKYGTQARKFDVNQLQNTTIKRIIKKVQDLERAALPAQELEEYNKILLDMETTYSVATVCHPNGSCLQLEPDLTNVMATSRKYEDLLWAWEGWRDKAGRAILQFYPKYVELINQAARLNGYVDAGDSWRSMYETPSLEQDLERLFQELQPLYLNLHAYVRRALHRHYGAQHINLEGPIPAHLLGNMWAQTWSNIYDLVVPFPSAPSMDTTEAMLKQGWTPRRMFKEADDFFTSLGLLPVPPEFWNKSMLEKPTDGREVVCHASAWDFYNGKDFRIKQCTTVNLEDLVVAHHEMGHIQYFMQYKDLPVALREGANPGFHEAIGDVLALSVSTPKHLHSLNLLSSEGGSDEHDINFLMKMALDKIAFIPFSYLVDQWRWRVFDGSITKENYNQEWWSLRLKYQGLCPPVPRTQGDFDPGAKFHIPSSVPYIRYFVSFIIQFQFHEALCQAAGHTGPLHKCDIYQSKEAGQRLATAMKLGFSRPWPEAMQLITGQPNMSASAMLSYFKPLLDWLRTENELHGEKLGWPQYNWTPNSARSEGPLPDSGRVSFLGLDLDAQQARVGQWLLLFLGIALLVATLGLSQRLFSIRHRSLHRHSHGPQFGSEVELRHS

As usually defined, the IC50 is the concentration that inhibits the measured activity by half. Read a high IC50 as weaker potency. Take `C[C@H](N[C@@H](CCc1ccccc1)C(=O)O)C(=O)N1C[C@@H](NC(=O)C(CS)Cc2ccccc2)C[C@H]1C(=O)O` (some centres not stated): the IC50 on Neprilysin turned out to be 149 nM; in assay [1], 42 nM.
The matching figures for `C[C@H](CS)C(=O)N1C[C@@H](NC(=O)C(CS)Cc2ccccc2)C[C@H]1C(=O)O` (some centres not stated): 14 nM and 87 nM.
One may read the Ki as a dissociation constant, usually derived from enzyme kinetics or from competition with a known ligand. As for `O=C(O)CCCCCCNC(=O)C(CS)Cc1ccccc1` (configuration not stated), on Neprilysin, the affinity corresponds to a Ki of 26 nM.
Take `C[C@H](N[C@@H](CCc1ccccc1)C(=O)O)C(=O)N1C[C@@H](NC(=O)NC(CS)Cc2ccccc2)C[C@H]1C(=O)O` (some centres not stated): the IC50 against Neprilysin was 1240 nM; in assay [1], 43 nM.
For `C[C@H](CS)C(=O)N1C[C@@H](NC(=O)NC(CS)Cc2ccccc2)C[C@H]1C(=O)O` (some centres not stated), in that order: 118 nM and 147 nM.
With `C[C@H](N[C@@H](CCc1ccccc1)C(=O)O)C(=O)N1C[C@H](OC(=O)NC(CS)Cc2ccccc2)C[C@H]1C(=O)O` (some centres not stated), the IC50 is > 1000 nM against Neprilysin and 506 nM in assay [1].
Consider `C[C@H](N[C@@H](CCc1ccccc1)C(=O)O)C(=O)N1C[C@H](NC(=O)C(CS)Cc2ccccc2)C[C@H]1C(=O)O` (some centres not stated), for which the IC50 was > 1000 nM at Neprilysin and 253 nM in assay [1].
For `C[C@H](CS)C(=O)N1C[C@@H](NC(=O)C(CS)Cc2ccc(-c3ccccc3)cc2)C[C@H]1C(=O)O` (some centres not stated), in that order: 20 nM and 696 nM.
The matching figures for `C[C@H](CS)C(=O)N1C[C@H](NC(=O)C(CS)Cc2ccccc2)C[C@H]1C(=O)O` (some centres not stated): 849 nM and 18 nM.
